{"source": "patent US8729048B2", "about": "“Methods and materials for assessing responsiveness to PARP inhibitors and platinating agents” (Mayo Foundation for Medical Education and Research, priority 2011, dated 2014)", "key": {"[1]": {"system": "parental M059J cells lacking DNA-PKcs", "assay": "Clonogenic assay, M059J", "format": "cell-based", "details": "BRCA1 shRNA", "experimental": "FIG. 6. […] (A) BRCA1-deficient HCC1937 and BRCA1-reconstituted HCC1937/BRCA1 cells were continuously exposed to ABT-888 in the presence or absence of 125 nM DNA-PKi and assayed for clonogenic survival. Inset, Western blots of cell lysates from HCC1937 and HCC1937/BRCA1. (B) Western blots of M059J and reconstituted M059J+DNA-PKcs lines showing the restoration of DNA-PK expression and the shRNA-mediated knockdown of BRCA1. (C) Clonogenic survival of shRNA transfected M059J/M059J+DNA-PKcs lines treated with ABT-888 for 72 hours. (D) Clonogenic survival of ATM-deficient GM16666 or ATM-reconstituted GM16667 fibroblasts. Cells were exposed to ABT-888 for 48 hours in the presence or absence of 250 nM DNA-PKi, washed, and allowed to form colonies. Inset, Western blots of lysates from GM16666 and GM16667 fibroblasts. […] Results are representative of 3 independent experiments.\nAll siRNA oligonucleotides were purchased from Ambion, Inc. (Austin, Tex.). Sequences, with references, are provided below. PEO1 and PEO4 cells were transfected with 150 picomoles of siRNA using the HiPerfect lipid transfection reagent (Qiagen; Valencia, Calif.). […]\nColony formation assays were performed on siRNA-transfected PEO1 and PEO4 cells 48 hours after the second transfection. […] Colonies containing ≧50 cells were scored manually. […]"}, "[2]": {"system": "NHEJ activity in PEO1 cells", "assay": "NHEJ end-joining reporter assay, PEO1", "format": "cell-based", "details": "72 hours", "from_the_text": "FIG. 3. Error-prone NHEJ activity is enhanced by PARP inhibitors in PEO1 cells. (A) Schematic of the in vivo NHEJ assay. Pem1-Ad2-EGFP is an EGFP-containing vector with a 2.4 kb intron (Pem1) and one exon (Ad2) inserted into the EGFP cassette. Pem1-Ad2-EGFP was cut with either HindIII or I-SceI to produce linearized substrate with compatible overhangs or incompatible inverted overhangs, respectively. Successfully recircularized plasmid will produce intact EGFP, which can be assayed via flow cytometry. Any residual uncut plasmid, due to the insertion of the Ad2 exon within the EGFP open reading frame, will be EGFP negative. A pCherry plasmid was co-transfected with substrate to correct for transfection efficiency. (B) and (C) Quantitation of NHEJ activity in PEO1 and PEO4 cells transfected with HindIII substrate (B) or I-SceI substrate (C) and exposed to ABT-888 for 72 hours. Each data point represents the mean±SEM from 3 independent experiments.\nThe end-joining reporter plasmid pEGFP-Pem1-Ad2 described elsewhere (Wang et al., Nucleic Acids Res., 34:6170-6182 (2006); Seluanov et al., Proc. Natl. Acad. Sci. USA, 101:7624-7629 (2004); and Fattah et al., PLoS Genet., 6:e1000855 (2010); see also (FIG. 3A)) was provided by E. Hendrickson (University of Minnesota, Minneapolis, Minn.) and was digested with either HindIII or I-SceI for 12 hours, and gel purified using a Qiagen gel extraction kit. […]"}}, "note": "Entries after “also recorded” stand apart in the source; their conditions may differ.", "data": [{"compound": "C[C@]1(c2nc3c(C(N)=O)cccc3[nH]2)CCCN1", "note": "[ABT-888]", "values": [{"measurement": "clonogenic sensitivity to ABT-888 after BRCA1 knockdown", "setting": "[1]", "value": "not sensitized"}, {"measurement": "end-joining of I-SceI-linearized substrate", "setting": "[2]; PEO1 cells compared to PEO4 cells", "value": "significantly increased; also recorded: pronounced increase in end-joining"}, {"measurement": "end-joining of HindIII-linearized substrate", "setting": "[2]; PEO1 cells", "value": "little effect; also recorded: small increase in end-joining"}]}]}
